Experimental findings from publication PMC9029323, “In Silico Identification of Novel Inhibitors Targeting the Homodimeric Interface of Superoxide Dismutase from the Dental Pathogen Streptococcus mutans” (Antioxidants, 2022) are described below.

Structures are written as SMILES.

The target in one assay is T1, SmSOD (Streptococcus mutans serotype c, UniProt P09738).
T1 construct: His-tail; made in house; host or cells: Escherichia coli BL21(DE3), vector vSmSOD (pET-22b(+)-derived)
Description: SOD activity assay (inhibition of cytochrome c reduction, xanthine/xanthine oxidase method) with SmSOD. Format: biochemical. To be noted: for remaining activity at 50 µM: 50 µM compound; for remaining activity at 50 µM / remaining activity at 100 µM / IC50: ALS-31 derivatives, Table 2; for remaining activity at 50 µM / remaining activity at 100 µM: read-out: Residual SOD Activity (%) in the Presence of [Compound]; for remaining activity at 100 µM: 100 µM compound; for IC50: SmSOD activity, read-out: IC50; for effect on SmSOD activity (in words): screening concentrations or inhibition profile up to 300 µM.

For assay [1], the system named is Streptococcus mutans ATCC-700610. Put plainly: Broth micro-dilution antibacterial assay (planktonic growth). Type of assay: cell-based. To be noted: 24 h. The procedure: (§1) The bacterial strain used for antimicrobial assays was Streptococcus mutans ATCC-700610. The strain was stored in 15% (v/v) glycerol stocks at −80 °C. Before each experiment, cells were subcultured from the stocks into Trypticase Soy Agar (TSA, cat. PA-254051.06) with 5% Sheep Blood (Becton Dickinson, Sparks, NV, USA) plates at 37 °C in 5% CO2 atmosphere for 48 h.
The antibacterial activity of compounds ALS-31 or ALS-31-9 was assayed in S. mutans cultures by a standard broth micro-dilution method in 96-well polystyrene plates using Brain-Heart Infusion broth (BHI, cat. 255003, Becton Dickinson, Sparks, NV, USA). One hundred microliters of bacterial suspension adjusted to approximately 1.5 × 10^6 CFU/mL were incubated with 100 µL of serial dilutions of the compounds dissolved in final 1.0% (v/v) DMSO as a vehicle. The plates were incubated at 37 °C in 5% CO2 atmosphere for 24 h under shaking (300 rpm). The medium turbidity was measured by a spectrophotometer at 595 nm (Bio-Rad Laboratories Inc., Hercules, CA, USA). Compound-free wells in 1.0% (v/v) DMSO were used as controls (100% planktonic growth), and antibacterial activity was expressed as a percentage of residual growth. Chlorhexidine acetate (CHX, cat. 51094, Sigma-Aldrich, St. Louis, MO, USA) solution (1 mg/mL) was prepared and included as control for the assay of S. mutans’ susceptibility (MIC referred to [51]). Each compound was tested in triplicate; each experiment was performed twice.
On the technique in general: Broth dilution looks for growth in wells or tubes with falling amounts of substance.

Assay [2] has the same test system. Put plainly: Crystal violet staining biofilm biomass assay. Format: cell-based. To be noted: Streptococcus mutans, ATCC700610, 24 h, read-out: inhibition of biofilm biomass formation. Here is the method:
as §1
The crystal violet (CV) staining method was used to measure biofilm biomass formed in flat-bottomed 96-well microplates in the presence of ALS-31 or ALS-31-9, as described by Stepanović et al., with some modifications. A bacterial suspension of approximately 1.5 × 10^6 CFU/mL in BHI supplemented with 1% (w/v) glucose was prepared, and 100-µL aliquots of this suspension were incubated with 100 µL of serial dilutions of each compound. The microplate was incubated at 37 °C for 24 h, after which the non-adherent cells were gently aspirated and the wells gently rinsed with PBS (Sigma–Aldrich). The adhered biofilm was dried at 60 °C for 30 min and subsequently stained with 0.1% (w/v) crystal violet solution for 30 min. After washing with PBS and solubilization with absolute ethanol to release the dye from the biofilm, the plate was read at 570 nm in a spectrophotometer. The absorbance recorded was related to the amount of biofilm produced. The reduction in the mass of the biofilm was expressed as a percentage by using the formula [(Ac-At)/Ac] × 100, where Ac is the OD570 for the control wells and At is the OD570 in the presence of the tested compound.

T1 sequence (P09738 2-203): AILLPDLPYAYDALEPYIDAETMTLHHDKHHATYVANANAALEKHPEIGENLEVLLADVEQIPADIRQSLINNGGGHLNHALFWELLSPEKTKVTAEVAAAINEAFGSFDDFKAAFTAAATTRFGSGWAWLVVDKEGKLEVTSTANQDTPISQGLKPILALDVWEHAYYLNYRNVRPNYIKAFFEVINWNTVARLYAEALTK
Description for SmSOD: Purified recombinant forms of SmSOD and StSOD were obtained through a heterologous expression system constituted by the Escherichia coli BL21(DE3) strain transformed with appropriate expression vectors, vSmSOD [11] or vStSOD [12]. These pET-22b(+)- or pET-28b(+)-derived plasmids led to the production of recombinant forms of SmSOD or StSOD, respectively fused to a His-tail, useful for their one-step purification by affinity chromatography, as previously described [11, 12]. The improvement of Mn uptake by SmSOD was realised as previously described [11, 12, 13]. The resulting metal (Fe and Mn) content in the cambialistic enzyme was determined by graphite furnace atomic absorption spectrometry with a Shimadzu ACS-6100 auto sampler [46]. Fe-SOD from Escherichia coli (cat. SRP6107) and the Cu/Zn-SOD from bovine erythrocytes (cat. 574594) were purchased from Sigma–Aldrich. A recombinant form of the eukaryal Mn–SOD from rat mitochondria was prepared as previously described [19]. Protein concentration was determined by the Bradford method, using bovine serum albumin as standard [47]. […] One unit of SOD activity was defined as the amount of enzyme that caused 50% inhibition of cytochrome c reduction.

With `CSCCC(NC(=O)COc1ccc2c3c(c(=O)oc2c1)CCC3)C(=O)O` (stereo not drawn) [ALS-31-1], on SmSOD, the remaining activity at 50 µM was 104% and the remaining activity at 100 µM stood at 97.2%.
Turning to `O=C(O)CCC(NC(=O)COc1ccc2c3c(c(=O)oc2c1)CCC3)C(=O)O` (stereo not drawn) [ALS-31-2], on SmSOD, the remaining activity at 50 µM came out at 89.8% and the remaining activity at 100 µM was found to be 113%.
For the compound `CSCCC(NC(=O)CCNC(=O)COc1ccc2c3c(c(=O)oc2c1)CCC3)C(=O)O` (stereo not drawn) [ALS-31-3], at SmSOD, the remaining activity at 50 µM was found to be 78.8% and the remaining activity at 100 µM was determined as 104%.
As for `CSCCC(NC(=O)COc1cc(C)cc2oc(=O)c3c(c12)CCC3)C(=O)NCCC(=O)O` (stereo not drawn) [ALS-31-4], on SmSOD, the remaining activity at 50 µM came to 92.6% and the remaining activity at 100 µM was found to be 96.8%.
For `CC(NC(=O)COc1ccc2c3c(c(=O)oc2c1)CCCC3)C(=O)NCC(=O)NCC(=O)O` (stereo not drawn) [ALS-31-5], on SmSOD, the remaining activity at 50 µM amounted to 93.4% and the remaining activity at 100 µM is 99.6%.
Consider `O=C(O)CCCNC(=O)COc1ccc2c3c(c(=O)oc2c1)CCCC3` [ALS-31-6], for which, at SmSOD, the remaining activity at 50 µM amounted to 75.1%, the remaining activity at 100 µM amounted to 78%, the IC50 was determined as 127 ± 12 µM and the “effect on SmSOD activity (in words)” value is listed as “dose-dependent reduction”.
Take `O=C(O)CCNC(=O)COc1ccc2c3c(c(=O)oc2c1)CCCC3` [ALS-31-7]: on SmSOD, the remaining activity at 50 µM amounted to 95.4% and the remaining activity at 100 µM stood at 125%.
In the case of `CSCCC(NC(=O)CCNC(=O)COc1cc2oc(=O)c3c(c2cc1C)CCCC3)C(=O)O` (stereo not drawn) [ALS-31-8], on SmSOD, the remaining activity at 50 µM came to 69.2%, the remaining activity at 100 µM turned out to be 76.9%, the half-maximal inhibitory concentration (IC50) was 292 ± 30 µM and the “effect on SmSOD activity (in words)” value is “dose-dependent reduction”.
On to `CCCC(NC(=O)COc1ccc2c3c(c(=O)oc2c1)CCCC3)C(=O)NCCCC(=O)O` (stereo not drawn) [ALS-31-9], for which, on SmSOD, the remaining activity at 50 µM stood at 65.3%, the remaining activity at 100 µM is 50.3%, the IC50 was determined as 64 ± 15 µM and the “effect on SmSOD activity (in words)” value is “dose-dependent reduction”. Moreover, at SmSOD (ratio of IC50 values), the “improved inhibition power on SmSOD compared to lead ALS-31” value was 2.5 fold. Further, in assay [1] (54 µM), the “percentage of planktonic growth of S. mutans” value came to 79.0 ± 4.6%. The “percentage of planktonic growth of S. mutans” value in assay [1] (108 µM) is 39.5 ± 2.1%. For the same compound, in assay [1] (216 µM), the “planktonic growth of S. mutans compared with 108 µM” value is given as “no further reduction”. In addition, the “concentration up to which no antimicrobial activity is displayed in S. mutans suspensions” value in assay [1] is given as at most 25 µM. In addition, in assay [2] (13.5 µM), the inhibition at 13.5 µM is 29.4%. Also, the inhibition at 27.3 µM in assay [2] (27.3 µM) worked out at 62.1%.
For the compound `CSCCC(NC(=O)COc1ccc2c3c(c(=O)oc2c1)CCCC3)C(=O)O` (stereo not drawn) [ALS-31-10], at SmSOD, the remaining activity at 50 µM worked out at 75%, the remaining activity at 100 µM was 68.9%, the IC50 was determined as 139 ± 8 µM and the “effect on SmSOD activity (in words)” value was “dose-dependent reduction”.
For `CCCC(NC(=O)COc1ccc2c3c(c(=O)oc2c1)CCCC3)C(=O)O` (stereo not drawn) [ALS-31-11], on SmSOD, the remaining activity at 50 µM is 83.7% and the remaining activity at 100 µM was determined as 125%.
For the compound `O=C(O)CNC(=O)CNC(=O)COc1ccc2c3c(c(=O)oc2c1)CCCC3` [ALS-31-12], on SmSOD, the remaining activity at 50 µM amounted to 75.6% and the remaining activity at 100 µM amounted to 125%.

Usually IC50 stands for the point on the concentration scale where inhibition reaches its midpoint. For orientation: inhibition means how much of the control response was suppressed.
